Measurements taken from patent US20230226138A1, “COMPOSITIONS AND METHODS FOR TREATING INFECTIONS AND NETOPATHY” (Black Cat Bio Limited, priority 2020, published 2023).
Read-outs that look alike come from different tables or passages of the source.

Columns and labels:
[1] = tested on: TMPRSS2; assay: TMPRSS2 protein levels in A549 in full media (SDS-PAGE blot, densitometry); assay type: cell-based, human; conditions: A549, full media (10% FCS), 72 hrs
Description: A549 were seeded in 6-well plates at a density of 1×10^6 per well. Cells were incubated in DMEM media (Lonza), supplemented with 10% FCS (HyClone) and 2 mM !-glutamine, 100 units/ml penicillin and 100 mg/ml streptomycin (Sigma). […] Cells were treated with 0-1 μM SA Inhibitor (SEQ ID NO: 2) or 10 μM Enzalutamide (ENZA, Sigma) for 72 hrs. Cells were harvested and proteins separated using SDS-PAGE. Blots were probed with antibodies specific for TMPRSS2 (ab92323, Abcam) and α-tubulin (B-5-1-2, Sigma). Protein levels were visualized using a chemiluminescence imaging system (Fusion FX, Vilber). Densitometry was performed using Image J and TMPRSS2 levels normalized to the internal control (Tubulin).

[2] = tested on: TMPRSS2; assay type: cell-based, human; conditions: for TMPRSS2 protein expression: relative to non-DHT stimulated control
Description: (§1) LNCaP and A549 cells were seeded at a density of 1×10^6 in 6-well plates and incubated for 72 hours in phenol red free RPM1-1640 and DMEM media (Lonza), supplemented with 5% and 2% double charcoal stripped FCS (First Link UK) respectively, and 2 mM I-glutamine, 100 units/ml penicillin and […] streptomycin (Sigma). Cells were treated with 100 ng/ml Epithelial Growth Factor (EGF, Sigma) or 1 nM DHT (dihydrotestosterone, Sigma) ±SA Inhibitor for 72 hrs. Cells were harvested and proteins separated using SDS-PAGE. Blots were probed with antibodies specific for TMPRSS2 (ab92323, Abcam) and α-tubulin (B-5-1-2, Sigma). Protein levels were visualized using a chemiluminescence imaging system (Fusion FX, Vilber). Densitometry was performed using Image J and TMPRSS2 levels normalised to the internal control (Tubulin).

[3] = tested on: TMPRSS2; assay type: cell-based, human; conditions: for TMPRSS2 protein expression: relative to non-DHT stimulated control; remark: listed apart in the source
Description: as §1

[4] = tested on: NETosis in Neutrophils (H3R8 citrullinated nucleosomes); assay: NETosis quantified by release of H3R8 citrullinated nucleosomes from stimulated neutrophils; assay type: cell-based, human; conditions: for citrullinated nucleosomes: 4 hours
[5] = tested on: Neutrophils (NETosis); assay type: cell-based, human
Description: Neutrophils, isolated as described in Example 4 (or by equivalent methodology as known in the art, for example, Ficoll Density gradient and dextran sedimentation followed by Red blood cell lysis with hypertonic solution) are resuspended in phenol red free RPMI 1640 media at a density of 2×10^6 cells per milliliter and incubated for five minutes in the dark at room temperature with NUCLEAR-ID Red (membrane impermeable) DNA dye to stain nuclei (1 ml/1.5 ml of cell suspension; Enzo Life Sciences). Cells are washed three times to remove free Dye by centrifuging at 2400 RFI for 5 min to pellet the cells and replacing supernatant with 1 ml fresh phenol red free RPMI 1640 media. […]
Neutrophils are imaged within 10 min of plating using phase contrast, red (800-ms exposure), and green (400-ms exposure) channels in an IncuCyte ZOOM platform, housed inside an incubator at 37° C. with 5% CO2. […] The Number of neutrophils is then calculated as the average red count for the three images per well and the Number of green cells calculated as the average green count. The percentage of neutrophils undergoing NETosis is calculated as the average green count divide by the average red count at each time point measured.

[6] = tested on: Neutrophils (NETosis); assay: Live cell imaging of IL6 triggered NETosis (Example 6); assay type: cell-based, human
Description: In a similar experiment to that described in Example 5, IL6 (Merck, Product Number H7416-10UG) is used to activate NETosis in response to LPS using a similar checkerboard configuration as shown in Table 4 (working IL6 concentrations 0, 10, 50 and 100 ng/mL).

[7] = tested on: Neutrophils (NETosis); assay: Live cell imaging of IL8 triggered NETosis (Example 7); assay type: cell-based, human
Description: In a similar experiment to that described in Example 5, IL8 (Merck, Product Number 11645-10UG) is used to activate NETosis in response to LPS using a similar checkerboard configuration as shown in Table 4 (working IL6 concentrations 0, 1, 10 and 100 nM).

[8] = tested on: COVID-19 patient derived neutrophils (NETosis); assay: Live cell imaging of NETosis in COVID-19 patient derived neutrophils (Example 8); assay type: cell-based, human; conditions: neutrophils from a SARSCoV-2 patient in intensive care
[9] = tested on: Staphylococcus aureus infection; assay: Patient case, bacterial infection with septic shock (Example 10); assay type: in vivo, human; conditions: 4 mg/kg sub-cutaneous once daily, antibiotics also administered, after a few days
Description: A patient is seen in the Emergency Room. The patient is running a temperature of 102° F. with a heart rate exceeding 90 beats/minute and rapid breathing. Septic shock is confirmed based on the requirement for vasopresser administration to maintain a mean arterial pressure of 65 mmHg and serum lactate level over 2 mmol/L. The patient is noted to be suffering from impaired kidney function. […] A Staphylococcus aureus infection is confirmed, and antibiotics administered. […] The peptide is continued to be administered once daily to the patient until the patient is recovered.

[10] = Patient case, sterile inflammatory response following trauma (Example 11); assay type: in vivo, human; conditions: 4 mg/kg sub-cutaneous once daily, post traumatic sepsis, after a few days
Excerpt: The patient is admitted to an intensive care unit and placed in an induced coma. […] The patients' cultures fail to reveal a bacterial infection. After a few days of once daily administration of the peptide, markers of Systematic Inflammatory Response Syndrome (SIRS), including temperature, heart rate and breathing rate improve. The peptide is continued to be administered until SIRS markers have returned to normal.

[11] = tested on: SARS-COV-2 infection; assay: Patient case, standalone SA inhibitor to reduce viral load (Example 12); assay type: in vivo, human; conditions: 4 mg/kg once daily sub-cutaneous, after a few days
Excerpt: A patient is brought into the hospital suffering from respiratory flu like symptoms. A blood sample is taken from the patient, who is confirmed by PCR analysis of viral RNA to have a SARS-COV-2 infection. […] Administration of the peptide continues until the patient is confirmed to be virus free by PCR.

[12] = tested on: COVID-19 virus infection; assay: Patient case, standalone SA inhibitor, viral load and NETosis (Example 13); assay type: in vivo, human; conditions: 4 mg/kg once daily sub-cutaneous
[13] = Patient case, flare up of Chron's disease, dry powder inhaler (second Example 14); assay type: in vivo, human; conditions: one metered dose (1 mg/kg) each morning, after eight days
Description: […] […] The patient is advised to take one metered dose (1 mg/kg) each morning until symptoms abate.

[14] = tested on: NETosis in Neutrophils (H3.1 nucleosomes); assay: NETosis quantified by release of H3.1 nucleosomes from stimulated neutrophils; conditions: 4 hours
Description: The ability of SA Inhibitor to reduce NETosis in Neutrophils stimulated by lipopolysaccharide (LPS, Sigma Aldrich, Product Number L4391-1MG) alone or in combination with Epidermal growth factor (Sigma Aldrich, Product Number SRP3027-500UG) was compared to the efficacy of a Src kinase Inhibitor (PP2, Sigma Aldrich, Product Number P0042-5MG) and a PAD4 inhibitor (GSK484, Cambridge Bioscience UK, Product Number CAY17488-1 mg) which is known to down regulate NETosis by preventing citrullination of histone proteins. […]
Tube-2 was placed into the magnet and after 10 minutes incubation the clear fraction (enriched cell suspension) collected by single pipette and transferred into a fresh 50 ml conical falcon tube (Tube-3) which was placed back into the magnet for a final, third separation. The clear fraction, containing purified, isolated neutrophils was transferred into a fresh 50 ml conical falcon tube (Tube-4) and the neutrophil cell Number, % viability and yield determined by cell counting and Trypan blue exclusion. […]

[15] = target: Src kinase (Homo sapiens, UniProt P12931); conditions: cited from earlier work
[16] = tested on: P38MAP kinase; conditions: cited from earlier work
[17] = animal disease models; cited from earlier work
[18] = tested on: ACE2; conditions: 6 hrs
Description: (§2) LNCaP (prostate) and A549 (Androgen receptor positive, human alveolar carcinoma-derived cell line with type II pneumonocyte properties) cells were seeded in 12-well plates (2×10^5 cells per well) in phenol red free RPMI-1640 and DMEM media (Lonza), supplemented with 5% and 2% double charcoal stripped FCS (First Link UK) respectively, and 2 mM I-glutamine, 100 units/ml penicillin and […] streptomycin (Sigma). Charcoal stripping was required to remove residual traces of hormones (Sedelaar et al, (2009)). Cells were treated with 0-100 nM dihydrotestosterone (DHT, Sigma) for 6 hrs. RNA was extracted using TRIzol (Thermo Fisher Scientific) and reverse transcribed (LunaScript RT Supermix Kit, NEB). TMPRSS2 and ACE2 expression was quantified using qPCR (LightCycler 96, Roche) and the data normalized to an internal control (L19).

[19] = tested on: TMPRSS2; conditions: 6 hrs; for relative expression of TMPRSS2: LNCaP
Description: as §2

Src kinase, sequence (P12931 whole entry): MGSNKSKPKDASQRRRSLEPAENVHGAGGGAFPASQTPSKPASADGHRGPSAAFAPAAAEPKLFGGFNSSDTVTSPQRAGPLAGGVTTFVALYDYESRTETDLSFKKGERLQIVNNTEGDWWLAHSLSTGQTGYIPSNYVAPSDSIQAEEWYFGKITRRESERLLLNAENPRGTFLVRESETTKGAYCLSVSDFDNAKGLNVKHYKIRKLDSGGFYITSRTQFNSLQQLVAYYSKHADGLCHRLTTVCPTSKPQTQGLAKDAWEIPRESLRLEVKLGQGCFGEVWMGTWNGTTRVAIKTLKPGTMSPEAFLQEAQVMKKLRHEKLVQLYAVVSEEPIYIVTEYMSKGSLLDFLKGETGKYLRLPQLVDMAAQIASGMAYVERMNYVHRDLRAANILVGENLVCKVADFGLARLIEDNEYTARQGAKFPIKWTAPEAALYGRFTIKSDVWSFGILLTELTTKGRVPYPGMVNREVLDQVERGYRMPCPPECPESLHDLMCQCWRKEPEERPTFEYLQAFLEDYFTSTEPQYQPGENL

**Q.** Which results are given for “Ac-Pro-Pro-Pro-His-Pro-His-Ala-Arg-Ile-Lys-NH2 (Ac-PPPHPHARIK-NH2) [SA Inhibitor]”?
**A.** expression of TMPRSS2 protein ([1]; 0-1 μM SA Inhibitor): decreased expression up to 10 nM SA Inhibitor followed by a progressive increase up to 1 μM; effect on EGF suppression of TMPRSS2 expression ([2]; EGF alone and with DHT, cell line not specified (LNCaP and A549 tested)): reversed this inhibitory effect; TMPRSS2 protein expression ([2]; LNCaP, SA Inhibitor in the absence of DHT stimulation, 72 hrs): 58.7%; TMPRSS2 protein expression ([2]; LNCaP, SA Inhibitor with DHT stimulation (1 nM), 72 hrs): 60.4%; TMPRSS2 protein expression ([3]; A549, SA Inhibitor in the absence of DHT stimulation, 72 hrs): 77.6%; TMPRSS2 protein expression ([3]; A549, SA Inhibitor with DHT stimulation (1 nM), 72 hrs): 70.2%; citrullinated nucleosomes ([4]; LPS trigger, 0.1 uM SA Inhibitor, LPS alone 158 ng/mL): 126.5 ng/mL; citrullinated nucleosomes ([4]; LPS trigger, 10 uM SA Inhibitor, LPS alone 158 ng/mL): 66.6 ng/mL; citrullinated nucleosomes ([4]; combined LPS and EGF, 0.1 uM SA Inhibitor, without inhibitor 208.5 ng/mL): 111.1 ng/mL; effect on DHT increased NETosis ([5]; 20 ug/mL LPS trigger plus DHT, SA Inhibitor 1 nM-1 mM, 30 minutes preincubation): This increase is reversed; effect on IL6 increased NETosis ([6]; LPS trigger plus IL6, SA Inhibitor checkerboard as Table 4): This increase is reversed; effect on IL8 increased NETosis ([7]; LPS trigger plus IL8, SA Inhibitor checkerboard as Table 4): This increase is reversed; level of NETosis [8]: shown to decrease in the treated neutrophils; kidney function [9]: returns to normal; markers of SIRS (temperature, heart rate, breathing rate) [9]: improve; markers of SIRS (temperature, heart rate, breathing rate) [10]: improve; viral load as determined by PCR [11]: lower than what would have been expected in the absence of the administration of the peptide; lung function / SpO2 [12]: improved lung function with a higher measured SpO2 level; viral load, as measured by PCR ([12]; after a few days): reduced and lower than would be expected in the absence of the peptide; Chron's disease flare up outcome [13]: goes back into remission; H3.1 NETosis derived nucleosome levels ([14]; LPS in combination with EGF, without inhibitor 641.9 ng/mL, inhibitor concentration not stated): 254.2 ng/mL; H3.1 nucleosomes released ([14]; LPS trigger, 0.1 uM SA Inhibitor, LPS alone 523.2 ng/mL): 339.4 ng/mL

**Q.** Which results are given for `O=C(O)c1cccnc1` [Niacin]?
**A.** Src kinase activity [15]: inhibited; P38MAP kinase activity [16]: inhibited; chemically induced lung fibrosis [17]: reduced

**Q.** For “IL6: IL6 (Merck) used to activate NETosis in response to LPS [reference compound]”, which “level of NETosis” value ([6]; LPS trigger, IL6 0, 10, 50 and 100 ng/mL) is on record?
**A.** Its value is “increased with increasing concentrations of IL6”.

**Q.** What does the source list for “EGF: Epithelial Growth Factor (EGF, Sigma) (NSDSECPLSHDGYCLHDGVCMYIEALDKYACNCVVGYIGERCQYRDLKWWELR; UniProt P01133 971-1023, looked up) [reference compound]”?
**A.** TMPRSS2 relative expression ([2]; LNCaP, 100 ng/ml EGF, 72 hrs): 62.8%; TMPRSS2 relative expression ([3]; A549, 100 ng/ml EGF, 72 hrs): 797%

**Q.** With `COc1cc(C(=O)N2CC[C@@H](O)[C@@H](N)C2)cc2nc(-c3cc4ccccc4n3CC3CC3)n(C)c12` [PAD4i, reference compound] as the compound, how does the “suppression of NETosis by citrullinated nucleosome marker” value ([4]; LPS or LPS and EGF (FIG. 4C, 4D), inhibitor 0.1-10 uM) read?
**A.** The value was “dose response reduction in citrullinated nucleosomes levels”.

**Q.** Which “expression of TMPRSS2 protein” value ([1]; 10 μM Enzalutamide) does the source give for `CNC(=O)c1ccc(N2C(=S)N(c3ccc(C#N)c(C(F)(F)F)c3)C(=O)C2(C)C)cc1F` [enzalutamide, Enzalutamide, reference compound] here?
**A.** The value was “did not achieve down regulation”.

**Q.** For “IL8: IL8 (Merck) used to activate NETosis in response to LPS [reference compound]”, which “level of NETosis” value ([7]; LPS trigger, IL8 0, 1, 10 and 100 nM) is on record?
**A.** The value was “increased with increasing concentrations of IL8”.

**Q.** Which results are given for `C[C@]12CCC(=O)C[C@@H]1CC[C@@H]1[C@@H]2CC[C@]2(C)[C@@H](O)CC[C@@H]12` [dihydrotestosterone]?
**A.** relative expression of ACE2 ([18]; A549, 0-100 nM dihydrotestosterone): slight negative correlation with dihydrotestosterone concentration; expression of ACE2, dose response to stimulation ([18]; LNCaP, 0-100 nM dihydrotestosterone): TMPRSS2, but not ACE2, showed a dose response; TMPRSS2 expression increase ([19]; A549, 1 nM dihydrotestosterone, compared to cells grown in the absence of dihydrotestosterone): over 2 ×; relative expression of TMPRSS2 ([19]; 0.1 nM dihydrotestosterone, compared to cells grown in the absence of dihydrotestosterone): approximately 3 ×; relative expression of TMPRSS2 ([19]; 10 nM dihydrotestosterone, compared to the control): 6 ×; TMPRSS2 relative expression [2]: 168%; TMPRSS2 relative expression [3]: 120.9%; level of NETosis (percentage of neutrophils undergoing NETosis) [5]: increased with increasing concentrations of dihydrotestosterone
